# From patent US20140294970A1, “STABILIZED PHARMACEUTICAL SUB-MICRON SUSPENSIONS AND METHODS OF FORMING SAME” (Alcon Research, Ltd., priority 2008, published 2014)
# pIC50: −log10 of the molar value.
# Test system: FGFR
# Assay: Kinase inhibition, cell-free enzymatic assay
# Assay type: biochemical
# Settings: 1 mM ATP
# Description: All data reported as IC50 values for kinase inhibition in cell-free enzymatic assays. Values determined @ 1 mM ATP.
structure (smiles),measurement,value
"Cc1ccc(F)c(NC(=O)Nc2ccc(-c3cccc4[nH]nc(N)c34)cc2)c1 [RTK Inhibitor, N-[4-(3-amino-1H-indazol-4-yl)phenyl]-N′-(2-fluoro-5-methylphenyl) urea]",pIC50,< 4.90
